Experimental data taken from patent US20190240337A1, “EPINEPHRINE FORMULATIONS FOR MEDICINAL PRODUCTS” (priority 2013, published 2019).
Read-outs that look alike come from different tables or passages of the source.

Conditions: aqueous solution
Description: In addition, an equilibrium constant of inclusion complex between epinephrine and sulfobutyl ether β-cyclodextrin (SBE-CD) in aqueous solution was determined using a spectroscopy technique, i.e., UV spectrophotometer as shown in FIG. 1. The equilibrium constant (K) between epinephrine and SBE-CD was determined by increasing the molar concentration ratio of SBD-CD to epinephrine in solution and measuring the spectral shift (ΔA) as shown FIG. 2 at pH 3.5. The K value was derived from the slope and intercept of a linear relationship from a plot between [Epi][SBD-CD]/ΔA and [SBD-CD] according to the Hildebrand and Benesi equation as shown in FIG. 2 (Rong Liu, Editor, Water-Insoluble Drug Formulation, Interpharm Press, 2000; and F. Cramer et. al., The Formation of Inclusion Compounds of a-Cyclodextrin in Aqueous Solutions, J. Am. Chem. Soc., 89, 14-20, 1967, the disclosures of which are incorporated herein by reference in their entireties).

SMILES: CNCC(O)c1ccc(O)c(O)c1 (single isomer, unassigned; (-)) [epinephrine, (−)-3,4-Dihydroxy-α-[(methylamino)methyl]benzyl alcohol]
- equilibrium constant (K) between epinephrine and SBE-CD (pH 3.5, room temperature): 488 M⁻¹
- equilibrium constant (K) between epinephrine and SBE-CD (pH 5.5): 111 M⁻¹
